Laboratory results published in patent US5620960A, “Use of D-allose as an immunosuppressive agent” (UOP, priority 1994, dated 1997).
“Also recorded” adds a separate entry of the source.

Columns and labels:
[1] = tested on: salmonella; assay: salmonella/mammalian--microsome reverse mutation assay; assay type: cell-based
From the text: 1) salmonella/mammalian--microsome reverse mutation assay;

[2] = tested on: mouse lymphoma; assay type: cell-based
From the text: 2) mouse lymphoma forward mutation assay;

[3] = tested on: chinese hamster ovary cells; assay type: cell-based
From the text: 3) chromosomal aberrations in chinese hamster ovary cells;

[4] = tested on: Balb cells; assay type: cell-based
From the text: 4) in vitro transformation of Balb cells;

[5] = tested on: human lymphocytes; assay type: cell-based
From the text: 5) sister chromatid exchange in human lymphocytes with and without activation.

[6] = tested on: Male Rats; assay: Acute Oral Toxicity Study in Male Rats; assay type: in vivo, rat
From the text: Acute Oral Toxicity Study in Male Rats

[7] = tested on: segmented neutrophils, leukocytes, erythrocytes, platelets; assay: 28-day rat gavage study: Hematology (blood cell counts); assay type: in vivo, rat (Crl:CD®BR); conditions: for Segmented Neutrophils (mean): terminal (28 days); for Segmented Neutrophils (mean) / Band Neutrophils (mean) / Basophils (mean) / Other Cells (mean) / Eosinophils (mean) / Monocytes (mean) / Erythrocytes (mean) / Leukocytes (mean) / Platelets (mean) / Lymphocytes (mean): N 5; for Band Neutrophils (mean) / Basophils (mean) / Other Cells (mean) / Eosinophils (mean) / Monocytes (mean) / Erythrocytes (mean) / Leukocytes (mean) / Platelets (mean) / Lymphocytes (mean): terminal; for Band Neutrophils (mean) / Basophils (mean) / Other Cells (mean): control 0.0; for Leukocytes (mean): control 9.6; for Platelets (mean): p ≤ 0.01; for Lymphocytes (mean): control 7.4
Method: (§1) D-allose or deionized water was administered to 15 male and 15 female rats (Crl:CD®BR rats approximately 4 weeks of age from Charles River Laboratories) by gavage once daily for 28 days at dosage levels of D-allose of 3.1 and 5.1 g/Kg/day.
(§2) Each rat was observed twice daily for mortality, morbidity and overt signs of toxicity. Detailed observations were performed once during each study week. Individual body weights, food consumption, food efficiency and water consumption were recorded daily. Hematology, biochemistry and urinalysis evaluations were conducted on all male and female animals during the last week of study. At study termination, all animals were euthanized. […] A complete set of major tissues and organs was harvested and selected organ weights were determined. Protocol-specified tissues were processed histologically and microscopic examination was conducted.
(§3) Clinical laboratory studies were conducted on all main animals at termination of study. Blood samples were obtained from the orbital sinus following an overnight fasting period in which water was available. Urine was collected during the fasting period.
(§4) As a result, bone marrow smears were examined for all animals.

[8] = tested on: Crl:CD®BR rats; set-up: species or system rat (Crl:CD®BR); conditions: rat, in vivo
Method: as §1, §2
The rats were observed twice daily for signs of overt toxicity at the times of the morbidity/mortality checks. Detailed observations were conducted once each study week during the 28 days of the study.
Individual body weights were recorded daily for the 28 days of the study.
For the first 28 days of the study, individual food consumption was recorded daily and food efficiency was calculated. […] Increases and decreases occurred in food efficiency values for males and females at all treatment levels, with no obvious trend.
Individual water consumption was recorded daily for the 28 days of the study.

[9] = 28-day rat gavage study: Biochemistry and urinalysis; assay type: in vivo, rat (Crl:CD®BR); conditions: 28 days
Method: as §1, §2, §3

[10] = tested on: bone marrow; assay: 28-day rat gavage study: Bone Marrow smears; assay type: in vivo, rat (Crl:CD®BR)
Method: as §1, §2, §4

[11] = tested on: major tissues and organs; assay: 28-day rat gavage study: Anatomic Pathology (necropsy and histopathology); assay type: in vivo, rat (Crl:CD®BR); conditions: 28 days gavage, listed organs
Method: as §1, §2

[12] = D-allose Excretion Routes ([^14 C]D-allose, liquid scintillation counting); assay type: in vivo, rat
From the text: (§5) This study was patterned after that Example 1 where a satellite group of animals received radiolabeled D-allose to establish excretion routes. On day 28, the animals in the satellite groups (5 controls, 5 males and 5 females) received a single dose of [^14 C]D-allose for-study days 1-28 at the same dose concentration as the non-radiolabeled material except for the "Control Satellite Group" which received a single high dose containing radiolabeled D-allose.
(§6) On days 1-27, all control group animals (main and satellite) received deionized water at the same dosage volume as the test animals. However, on day 28 the satellite control animals became "Unadapted High Dose Test Animals" in that they received a high dose (5.1 g/kg) of radiolabeled D-allose. In this manner the "Unadapted High Dose Test Animals" could be directly compared to the multiple high dose animals which were adapted by administration of the high dose for 28 days.
Each rat was observed twice daily for mortality, morbidity and overt signs of toxicity. Detailed observations were performed once during each study week. Individual body weights, food consumption, food efficiency and water consumption were recorded daily. […] Feces samples were collected at 24, 48, 72 and 96 hours after radiolabeled dosing from the satellite group animals. Duplicate aliquots of expired air solution, urine, feces and cage wash were analyzed by liquid scintillation counting (LSC). At study termination, all animals were euthanized. The carcasses from the satellite groups were analyzed for radioactive content only.

[13] = rat, in vivo
From the text: as §5, §6
HPLC (High Pressure Liquid Chromatography) of urine from treated animals was compared with C^14 radiolabeled D-allose spiked urine from control animals.

[14] = water solubility; assay type: physicochemical
[15] = acute oral, 5 grams/Kg, male rats
[16] = females, D-allose 3.1 g/kg/day, control 0.1
[17] = males, D-allose 3.1 g/kg/day, control 0.2
[18] = males, D-allose 5.1 g/kg/day, control 0.2

## O=C[C@H](O)[C@H](O)[C@H](O)[C@H](O)CO [D-allose]
[1]
  mutagenic properties: no mutagenic properties
[2]
  mutagenic properties: no mutagenic properties
[3]
  mutagenic properties: no mutagenic properties
[4]
  mutagenic properties: no mutagenic properties
[5]
  mutagenic properties: no mutagenic properties
[6]; [15]
  body weight changes: no remarkable body weight changes
  mortalities: no mortalities
  pharmacotoxic signs: no pharmacotoxic signs
[6]; rat, in vivo, po
  visible post-mortem abnormalities: no visible post-mortem abnormalities
[7]; 5.1 g/Kg/day, 28 days
  segmented neutrophils in some high dose group animals: very low or not countable
[7]; 28 days gavage, 3.1 and 5.1 g/Kg/day, both sexes
  platelets (result in words): significant reduction in platelet formation; also recorded: dose-related reduction in numbers in both sexes; also recorded: dose-related reduction in platelet counts in both sexes
[7]; 28 days gavage, 3.1 and 5.1 g/Kg/day, rats
  segmented neutrophils (result in words): dose-related reduction in segmented neutrophil production; also recorded: marked decrease in segmented neutrophils which was dose-related; also recorded: reduction in segmented neutrophils
[7]; 28 days gavage, rats
  effect on the erythroid series: no apparent effect on the erythroid series
  total leukocyte counts (result in words): reductions in total leukocyte counts
[7]; females, D-allose 3.1 g/kg/day, control 1.8
  Segmented Neutrophils (mean): 0.5 × 10^3 /cmm
[7]; females, D-allose 3.1 g/kg/day
  Band Neutrophils (mean): 0.0 × 10^3 /cmm
  Basophils (mean): 0.0 × 10^3 /cmm
  Other Cells (mean): 0.0 × 10^3 /cmm
  Leukocytes (mean): 6.5 × 10^3 /cumm
[7]; [16]
  Eosinophils (mean): 0.1 × 10^3 /cmm
  Monocytes (mean): 0.1 × 10^3 /cmm
[7]; females, D-allose 3.1 g/kg/day, control 6.17
  Erythrocytes (mean): 6.24 × 10^6 /cumm
[7]; females, D-allose 3.1 g/kg/day, control 992
  Platelets (mean): 567 × 10^3 /cmm
[7]; females, D-allose 5.1 g/kg/day, control 1.8
  Segmented Neutrophils (mean): 0.1 × 10^3 /cmm
[7]; females, D-allose 5.1 g/kg/day
  Band Neutrophils (mean): 0.0 × 10^3 /cmm
  Basophils (mean): 0.0 × 10^3 /cmm
  Other Cells (mean): 0.0 × 10^3 /cmm
  Leukocytes (mean): 5.4 × 10^3 /cumm
[7]; females, D-allose 5.1 g/kg/day, control 0.1
  Eosinophils (mean): 0.1 × 10^3 /cmm
[7]; females, D-allose 5.1 g/kg/day, control 6.17
  Erythrocytes (mean): 6.42 × 10^6 /cumm
[7]; females, D-allose 5.1 g/kg/day, control 992
  Platelets (mean): 414 × 10^3 /cmm
[7]; males, D-allose 3.1 g/kg/day, control 1.9
  Segmented Neutrophils (mean): 0.9 × 10^3 /cmm
[7]; males, D-allose 3.1 g/kg/day
  Band Neutrophils (mean): 0.0 × 10^3 /cmm
  Basophils (mean): 0.0 × 10^3 /cmm
  Other Cells (mean): 0.0 × 10^3 /cmm
  Lymphocytes (mean): 9.1 × 10^3 /cmm
  Leukocytes (mean): 10.3 × 10^3 /cumm
[7]; [17]
  Eosinophils (mean): 0.1 × 10^3 /cmm
  Monocytes (mean): 0.1 × 10^3 /cmm
[7]; males, D-allose 3.1 g/kg/day, control 6.85
  Erythrocytes (mean): 7.10 × 10^6 /cumm
[7]; males, D-allose 3.1 g/kg/day, control 1072
  Platelets (mean): 546 × 10^3 /cmm
[7]; males, D-allose 5.1 g/kg/day, control 1.9
  Segmented Neutrophils (mean): 0.2 × 10^3 /cmm
[7]; males, D-allose 5.1 g/kg/day
  Band Neutrophils (mean): 0.0 × 10^3 /cmm
  Basophils (mean): 0.0 × 10^3 /cmm
  Other Cells (mean): 0.0 × 10^3 /cmm
  Lymphocytes (mean): 5.6 × 10^3 /cmm
[7]; [18]
  Eosinophils (mean): 0.1 × 10^3 /cmm
  Monocytes (mean): 0.1 × 10^3 /cmm
[7]; males, D-allose 5.1 g/kg/day, control 6.85
  Erythrocytes (mean): 7.03 × 10^6 /cumm
[7]; males, D-allose 5.1 g/kg/day, significantly different from control
  Leukocytes (mean): 5.9 × 10^3 /cumm
[7]; males, D-allose 5.1 g/kg/day, control 1072
  Platelets (mean): 320 × 10^3 /cmm
[7]; rats, suppression of segmented neutrophil and platelet production
  duration of suppressive effect: remains only so long as D-allose administration is continued
[8]
  effect on appearance or behavior (clinical signs): no definitive D-allose-related effect
  mean food consumption values or mean food efficiency values: no D-allose-related effect
  mean water consumption values: no D-allose-related effect
[9]; males, high dose (5.1 g/kg/day), vs. 51 mg/dl, significantly increased
  Cholesterol: 72 mg/dL
[9]; treated animals
  pH: decreased
[9]; treated groups
  Urine volumes: decreased
  urine specific gravity: increased
[10]; 3.1 and 5.1 g/kg/day, most striking in the high dose groups
  numbers of late stage neutrophils in bone marrow: decreased numbers of late stage neutrophils
[10]; 28 days gavage, rats
  mature myeloid cells in the bone marrow smears: marked reduction in mature myeloid cells
[10]; all groups
  bone marrow erythroid series: well represented with a normal maturation sequence
[10]; both dosage groups (3.1 and 5.1 g/kg/day)
  cytological integrity of the cells in the neutrophil series: overall decrease in cytological integrity
[10]; both treatment groups, usually, control approximately 1.6 to 3.0
  Myeloid to erythroid ratios in bone marrows: less than 1.0
[10]; control and both treatment groups
  bone marrow cellularity and megakaryocytes: very cellular with adequate numbers of active megakaryocytes in varying stages of maturity
[11]
  findings at necropsy or on histopathological examination: no treatment related findings
[12]; all groups
  radioactivity retained in carcass: less than 1%
[12]; corrected for recovery
  excretion of radiolabel in the feces, of the recovered dose: 6 to 9%
[12]; corrected for recovery, average, all three test groups
  urinary excretion, of the recovered dose: approximately 90%
[12]; radiolabeled D-allose
  differences in the rates or routes of excretion between treatment groups: no substantial differences
[12]; radiolabeled D-allose, rats
  radioactivity excretion routes: most of the radioactivity was excreted in the urine with a small amount in the feces and lesser amounts in exhaled air and retained in the carcass
[12]; rat, in vivo
  Radiation in exhaled air: less than 0.5%
  effects on survival, appearance, behavior, body weights, food consumption or water consumption: no D-allose-related effects
[13]
  HPLC of urine from treated animals: major peak corresponding to the spiked D-allose peak
  undigested D-allose in the urine: confirmed the presence of undigested D-allose in the urine
[14]
  water solubility: high water solubility
